The source of these data is EP4793271A1, “NEUROPROTECTIVE AGENT” (National Center of Neurology and Psychiatry, priority 2023, dated 2025).

Where two headings read alike, the source gives them in different places. Bounds are passed on as bounds.

Test [1] has as its system primary cultured cells of mouse fetus-derived dorsal root ganglia (DRGs). In words: Suppression of axonal degeneration after axotomy in DRG explant culture. Format: cell-based. The following applies: minimum concentration at which axonal degeneration was suppressed (DI 0.3 or less), 24 hours after axotomy; for minimal effective concentration: Mus musculus, read-out: Evaluation on protection against degeneration. In outline: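 Embryonic ICR mouse DRG explants were cultured 7–8 days in nicotinamide-free neuronal medium with NGF, then axotomized by removing the cell bodies. Compound (100 pM–10 µM final, 0.1% DMSO) was added within 30 min, and neurites were imaged 24 h later. The result is the lowest concentration giving degeneration index ≤0.3.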

The target in test [2] is T1, hSARM1 (Homo sapiens, UniProt Q6SZW1).
T1 sequence (Q6SZW1 28-724): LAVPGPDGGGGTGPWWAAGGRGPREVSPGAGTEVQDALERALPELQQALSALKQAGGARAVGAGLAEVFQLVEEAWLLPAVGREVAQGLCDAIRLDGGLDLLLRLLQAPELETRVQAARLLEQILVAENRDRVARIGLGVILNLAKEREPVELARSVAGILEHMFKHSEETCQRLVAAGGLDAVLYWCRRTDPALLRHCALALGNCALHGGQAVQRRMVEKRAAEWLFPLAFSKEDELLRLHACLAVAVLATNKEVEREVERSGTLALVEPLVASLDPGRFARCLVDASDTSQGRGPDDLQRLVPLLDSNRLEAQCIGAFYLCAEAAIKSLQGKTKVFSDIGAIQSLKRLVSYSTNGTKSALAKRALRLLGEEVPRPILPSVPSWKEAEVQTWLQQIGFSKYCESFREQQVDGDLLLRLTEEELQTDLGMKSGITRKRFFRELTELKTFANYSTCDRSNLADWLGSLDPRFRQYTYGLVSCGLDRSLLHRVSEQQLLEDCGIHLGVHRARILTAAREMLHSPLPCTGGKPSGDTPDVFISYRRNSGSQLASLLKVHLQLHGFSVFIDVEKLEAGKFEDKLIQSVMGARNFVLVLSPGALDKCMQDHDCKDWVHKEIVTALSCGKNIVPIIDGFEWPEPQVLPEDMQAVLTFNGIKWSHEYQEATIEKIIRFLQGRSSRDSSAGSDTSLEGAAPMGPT
Briefly: Human SARM1 activity measurement in HEK293 cells transiently transfected with ΔN-hSARM1 (PC6 fluorescent probe). Format: cell-based. Further details: expressed in transfected cells; host or cells: HEK293, pcDNA3 expression vector. The procedure, abridged: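 HEK293 cells in nicotinamide-free DMEM with 5 μM nicotinamide, transiently transfected with mitochondrial-targeting-deleted ΔN-hSARM1; PC6 base-exchange fluorescent probe (50 μM) plus compound (30 μM) added ~8 h post-transfection. Fluorescence (ex 405/em 525 nm) read ~48 h from transfection; inhibition % versus transfected DMSO control, untransfected background subtracted.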

For test [3], the target named is T2, nicotinamide phosphoribosyl transferase (NAMPT) (Homo sapiens, UniProt P43490).
T2 construct: purchased Medical & Biological Laboratories Co., Ltd. (MBL)
T2 sequence (P43490 whole entry, species assumed): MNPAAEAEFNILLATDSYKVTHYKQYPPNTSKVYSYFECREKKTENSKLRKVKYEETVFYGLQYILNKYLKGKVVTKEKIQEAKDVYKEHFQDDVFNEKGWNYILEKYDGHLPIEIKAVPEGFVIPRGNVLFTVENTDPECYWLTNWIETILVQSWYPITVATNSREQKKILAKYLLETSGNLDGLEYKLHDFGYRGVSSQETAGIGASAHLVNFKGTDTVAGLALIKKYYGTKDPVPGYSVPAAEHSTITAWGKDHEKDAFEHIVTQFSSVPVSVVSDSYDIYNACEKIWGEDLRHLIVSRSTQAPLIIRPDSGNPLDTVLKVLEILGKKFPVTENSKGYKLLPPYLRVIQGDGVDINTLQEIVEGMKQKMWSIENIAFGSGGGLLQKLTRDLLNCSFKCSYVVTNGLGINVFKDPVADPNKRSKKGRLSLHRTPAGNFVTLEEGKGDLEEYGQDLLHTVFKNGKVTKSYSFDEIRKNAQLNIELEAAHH
In words: NAMPT activity measurement (NMN fluorescence detection). The test is classed as biochemical. The following applies: NAMPT recombinant protein, 10 µM Nam; for IC50: read-out: Evaluation on NAMPT inhibitory. In outline: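 Recombinant NAMPT reacted with 10 µM Nam, 0.5 µM PRPP, 2 µM ATP in Tris pH 7.4 buffer with MgCl2, DTT, BSA; product NMN quantified by fluorescence (ex 421/em 480 nm) after derivatization with 2-acetylbenzofuran. Compounds at 3 nM–10 µM; control-normalized signal used for IC50.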

[4] abbreviates: inhibition rate, compound 30 µM, PC6 50 µM, HEK293 cells expressing ΔN-hSARM1, approximately 48 hours from transfection, read-out: Evaluation on hSARM1 inhibitory.

Consider `Cc1ccc(C(=O)Nc2ccc(CNC(=O)c3cccnc3)cn2)c(C)c1` [Compound 135], for which the “Evaluation on protection against degeneration” value (“Evaluation on protection” for short) in test [1] is “A (A ≤ 0.01 µM)”. Besides, the inhibition at 30 µM in test [2] (HEK293, read-out: Evaluation on hSARM1 inhibitory) is more than 75%. In addition, the “Evaluation on NAMPT inhibitory” value in test [3] is “○”.
With `O=C(NCc1ccc(NC(=O)c2cccnc2)c(Cl)c1)c1cccnc1` [Compound 112], the “Evaluation on protection” value in test [1] is recorded as “B (0.01 µM < B ≤ 0.1 µM)”. Also, in test [2] (setting [4]), the inhibition at 30 µM is more than 10%. The “Evaluation on NAMPT inhibitory” value in test [3] is reported as “○”.
Regarding `O=C(CNC(=O)c1cccnc1)NCCCCCCNC(=O)CNC(=O)c1cccnc1` [compound 41], in test [1], the minimal effective concentration is not above 0.01 µM. Further, in test [2] (setting [4]), the inhibition at 30 µM was more than 75%. The “Evaluation on NAMPT inhibitory” value in test [3] is “○”.
As for `O=C(/C=C/c1cccnc1)NCc1cccc(NC(=O)/C=C/c2cccnc2)c1` [compound 61], the minimal effective concentration in test [1] was not above 0.01 µM. Besides, in test [2] (setting [4]), the inhibition at 30 µM is more than 75%. Moreover, the IC50 in test [3] is not below 100 nM.
Regarding `O=C(NCCCC1NC(=O)C(CCCNC(=O)c2cccnc2)NC1=O)c1cccnc1` (stereo not drawn) [compound 103], the minimal effective concentration in test [1] lay in the range of 0.01 to 0.1 µM. The inhibition at 30 µM in test [2] (setting [4]) is more than 10%. The “Evaluation on NAMPT inhibitory” value in test [3] is “○”.
For `N#Cc1ccc(C(=O)Nc2ccc(CNC(=O)c3cccnc3)cn2)cc1` [compound 73], in that order: not above 0.01 µM, more than 50% and “○”.
For `O=C(NCc1ccc(NC(=O)c2cccc(Cl)c2)nc1)c1cccnc1` [Compound 132], in that order: not above 0.01 µM, more than 75% and “○”.
On to `C/C(=C\C(=O)NCCOCCNC(=O)/C=C(\C)c1cccnc1)c1cccnc1` [compound 43], for which the minimal effective concentration in test [1] was not above 0.01 µM. Moreover, the inhibition at 30 µM in test [2] (setting [4]) was more than 75%. Further, the IC50 in test [3] is not below 100 nM.
As for `CCCCCC(=O)Nc1ccc(CNC(=O)c2cccnc2)cn1` [Compound 160], the minimal effective concentration in test [1] was not above 0.01 µM. In addition, the inhibition at 30 µM in test [2] (setting [4]) was more than 75%. For the same compound, the IC50 in test [3] is not below 100 nM.
Turning to `O=C(CCc1ccccc1)NCc1ccc(CNC(=O)c2cccnc2)cc1` [compound 65], the minimal effective concentration in test [1] is not above 0.01 µM. Further, the inhibition at 30 µM in test [2] (setting [4]) is more than 75%. Also, the “Evaluation on NAMPT inhibitory” value in test [3] is given as “○”.
As for `O=C(NCCCCCCN1CCN(CCOC(=O)c2cccnc2)CC1)c1cccnc1` [compound 95], the minimal effective concentration in test [1] is not above 0.01 µM. The inhibition at 30 µM in test [2] (setting [4]) was more than 50%. In test [3], the “Evaluation on NAMPT inhibitory” value is recorded as “○”.
For `COC(=O)c1ccc(OCCOCCNC(=O)/C=C/c2cccnc2)cc1` [compound 31], the minimal effective concentration in test [1] was not above 0.01 µM. Besides, the inhibition at 30 µM in test [2] (setting [4]) was more than 75%. Also, the IC50 in test [3] is not below 100 nM.
For `O=C(NCCCOCCOCCCNC(=O)c1cnc2ccccc2c1)c1cccnc1` [Compound 185], in test [1], the minimal effective concentration lay in the range of 0.1 to 1 µM. The inhibition at 30 µM in test [2] (setting [4]) was more than 25%. Besides, the “Evaluation on NAMPT inhibitory” value in test [3] is “○”.
For the compound `O=C(NCc1ccc(NC(=O)c2cc(F)cc(C(F)(F)F)c2)nc1)c1cccnc1` [compound 84], the minimal effective concentration in test [1] fell in the range of 0.01 to 0.1 µM. For the same compound, in test [2] (setting [4]), the inhibition at 30 µM was more than 75%. The IC50 in test [3] was not below 100 nM.
`O=C(NCc1cccc(CNC(=O)c2cccnc2)n1)c1ccncc1` [Compound 151]: the minimal effective concentration in test [1] lay within 0.1 to 1 µM. The inhibition at 30 µM in test [2] (setting [4]) was more than 25%. Moreover, the “Evaluation on NAMPT inhibitory” value in test [3] is “○”.
For `Cc1cc(C)cc(C(=O)Nc2ccc(CNC(=O)c3cccnc3)cn2)c1` [Compound 136], in that order: not above 0.01 µM, more than 75% and “○”.
For `O=C(NCc1ccc(CNC(=O)c2ccccc2)nc1)c1cccnc1` [Compound 153], in that order: 0.01 to 0.1 µM, more than 75% and “○”.
As to `O=C(NCCCCCCCCOCCOCCO)c1cccnc1` [compound 6], in test [1], the minimal effective concentration is not above 0.01 µM. In addition, the inhibition at 30 µM in test [2] (setting [4]) was more than 75%. For the same compound, the IC50 in test [3] is not below 100 nM.
For `CCCCC(=O)Nc1ccc(CNC(=O)c2cccnc2)cn1` [Compound 159], the minimal effective concentration in test [1] was not above 0.01 µM. Besides, the inhibition at 30 µM in test [2] (setting [4]) was more than 50%. The “Evaluation on NAMPT inhibitory” value in test [3] is “○”.
Take `O=C(Cc1ccc(F)cc1)Nc1ccc(CNC(=O)c2cccnc2)cn1` [Compound 144]: the minimal effective concentration in test [1] is not above 0.01 µM. Further, in test [2] (setting [4]), the inhibition at 30 µM was more than 75%. Further, the IC50 in test [3] is not below 100 nM.
For the compound `O=C(CNC(=O)c1cccnc1)NCCNC(=O)CNC(=O)c1cccnc1` [compound 40], the minimal effective concentration in test [1] lay within 0.1 to 1 µM. Moreover, the inhibition at 30 µM in test [2] (setting [4]) is more than 10%. Further, the “Evaluation on NAMPT inhibitory” value in test [3] is recorded as “○”.
With `O=C(CCc1ccccc1)Nc1ccc(CNC(=O)c2cccnc2)cn1` [Compound 115], the minimal effective concentration in test [1] was not above 0.01 µM. Further, the inhibition at 30 µM in test [2] (setting [4]) was more than 75%. The “Evaluation on NAMPT inhibitory” value in test [3] is reported as “○”.
In the same order, the values of `O=C(NCc1ccc(NC(=O)c2cc(F)cc(F)c2)nc1)c1cccnc1` [Compound 138] are not above 0.01 µM, more than 75% and “○”.
In the same order, the values of `O=C(NCc1ccc(NC(=O)C2CCOCC2)nc1)c1cccnc1` [Compound 114] are not above 0.01 µM, more than 75% and “○”.
With `CC(C)CCC(=O)Nc1ccc(CNC(=O)c2cccnc2)cn1` [Compound 164], the minimal effective concentration in test [1] is not above 0.01 µM. Further, the inhibition at 30 µM in test [2] (setting [4]) is more than 75%. In addition, in test [3], the IC50 was not below 100 nM.
Consider `NCCCOCCOCCCNC(=O)c1cccnc1` [compound 106], for which, in test [1], the minimal effective concentration is not above 0.01 µM. Further, in test [2] (setting [4]), the inhibition at 30 µM was more than 25%. The “Evaluation on NAMPT inhibitory” value in test [3] is “○”.
`CC(=O)NCc1ccc(OCCOCCNC(=O)c2cccnc2)cc1` [compound 21]: the minimal effective concentration in test [1] was not above 0.01 µM. For the same compound, the inhibition at 30 µM in test [2] (setting [4]) was more than 50%. Moreover, the “Evaluation on NAMPT inhibitory” value in test [3] was “○”.
On to `NCCOCCCCCCCCNC(=O)c1cccnc1` [compound 96], for which, in test [1], the minimal effective concentration was not above 0.01 µM. The inhibition at 30 µM in test [2] (setting [4]) is more than 75%. Moreover, the IC50 in test [3] is not below 100 nM.
For the compound `N#Cc1ccc(CCC(=O)Nc2ccc(CNC(=O)c3cccnc3)cn2)cc1` [Compound 173], in test [1], the minimal effective concentration was in the range of 0.01 to 0.1 µM. Also, the inhibition at 30 µM in test [2] (setting [4]) was more than 75%. The “Evaluation on NAMPT inhibitory” value in test [3] is listed as “○”.
For `O=C(NCc1ccc(NC(=O)c2ccccc2OC(F)(F)F)nc1)c1cccnc1` [compound 85], the “Evaluation on protection” value in test [1] is “B (0.01 µM < B ≤ 0.1 µM)”. In addition, the inhibition at 30 µM in test [2] (setting [4]) was more than 75%. Further, in test [3], the “Evaluation on NAMPT inhibitory” value is given as “○”.
Take `O=C(NCc1ccc(CNC(=O)c2cccnc2)nc1)c1cccnc1` [Compound 146]: the minimal effective concentration in test [1] is 0.01 to 0.1 µM. Besides, the inhibition at 30 µM in test [2] (setting [4]) is more than 50%. In test [3], the “Evaluation on NAMPT inhibitory” value is “○”.
As to `O=C(Cc1ccc(OCc2ccccc2)cc1)Nc1ccc(CNC(=O)c2cccnc2)cn1` [Compound 177], in test [1], the minimal effective concentration fell in the range of 0.01 to 0.1 µM. In addition, the inhibition at 30 µM in test [2] (setting [4]) was more than 75%. Moreover, in test [3], the IC50 is not below 100 nM.
For `O=C(NCc1ccc(NC(=O)c2ccccc2)c(Cl)c1)c1cccnc1` [Compound 111], in test [1], the minimal effective concentration is not above 0.01 µM. For the same compound, the inhibition at 30 µM in test [2] (setting [4]) is more than 10%. Besides, the “Evaluation on NAMPT inhibitory” value in test [3] is “○”.
Consider `C#CCOc1ccc(C(=O)Nc2ccc(CNC(=O)c3cccnc3)cn2)cc1` [compound 91], for which the minimal effective concentration in test [1] is not above 0.01 µM. In addition, the inhibition at 30 µM in test [2] (setting [4]) is more than 50%. Further, in test [3], the “Evaluation on NAMPT inhibitory” value was “○”.
